Laboratory results: patent US4542123A (Massachusetts Institute of Technology, priority 1982, dated 1985)
“Also recorded” adds a separate entry of the source.

Assay: Plasma amino acid levels after glucose ingestion (Example I, Table 1)
Format: in vivo, human
Method: Six healthy, non-obese, fasting subjects each received, on different days 0, 6, 12.5, 25 or 50 g of glucose (Glucola) in a total volume of 100 ml.
Following a protocol approved by the Massachusetts Institute of Technology Committee on the Use of Humans as Experimental Subjects, 6 healthy volunteer outpatients, aged 25-33 years, participated in the study; 3 were males and 3 females. Mean weight was 60 kg for the women and 70 for the men; all subjects were within 10% of their ideal body weight as determined by Metropolitan Life Insurance Company tables. […] Subjects were asked to take meals rich in carbohydrate content (about 300 g/day) for 3 days before beginning the study. On 5 separate days, each subject fasted from 8 p.m. until 9 the next morning and then received a load of 0, 6, 12.5, 25 or 50 g of glucose (caffeine-free glucola) dissolved in water in a total volume of 100 ml; the order of doses was randomized. Venous blood samples were drawn from the antecubital vein through an indwelling catheter at 0, 60 and 120 min for all doses and additionally at 30 and 180 min for the 12.5, 25 and 50 g doses. Blood was collected in heparanized tubes; after centrifugation plasma was stored at -20° C. until analyzed. […] Glucose was analyzed spectrophotometrically after reaction with O-toluidine in hot acidic acid (Sigma Bulletin #635;15). Insulin was measured using a commercial radioimmunoassay kit by a double antibody method (Bio-RIA, Louisville, Ky.). Plasma tryptophan was measured fluorometrically on 20 μl plasma aliquots by the method of Denckla and Dewey, J. Lab. Clin. Med. 69: 160-169, 1967, as modified by Lehman, Scand. J. Clin. Lab. Invest. 28: 49-55, 1971. Branched-chain amino acids and aromatic amino acids were measured in 500 μl aliquots of plasma, deproteinized with sulfosalicylic acid, using a Beckman amino acid analyzer (Beckman Instruments, Palo Alto, Calif., Model 119C).
Data, given as means ±SE errors, were analyzed by two-way analysis of variance; factors compared were dose and time. The Scheffe test was employed to test the statistical significance of differences; p<0.05 was considered significant. Areas under the curves were evaluated by the method of trapezoid approximation. Student tests for paired data were used to evaluate the significance of changes in individual amino acids. Amino acid concentrations after treatments for each subject were also expressed as a percentage of that day's pretreatment levels; mean percent changes were then calculated for each treatment and time interval.
Sum of the LNAA: total concentration of leucine, isoleucine, valine,
the sum of the LNAA, measured 0, 60 and 120 min after 6 nonobese, fasting
subjects ingested 0, 6, 12.5, 25 or 50 g of glucose. All plasma amino
acids, except tryptophan, were measured on a Beckman amino acid analyzer.
Tryptophan was measured by the method of Denckla and Dewey. Data are
expressed as means ± S.E.M.

Compound: O=C[C@H](O)[C@@H](O)[C@H](O)[C@H](O)CO [Glucose, glucose]
- Plasma Iso level (glucose 12.5 g, 120 min): 48 ± 3 nmol/mL
- Plasma LNAA (sum) (glucose 12.5 g, 120 min): 582 ± 49 nmol/mL
- Plasma Leu level (glucose 12.5 g, 120 min): 95 ± 9 nmol/mL
- Plasma Met level (glucose 12.5 g, 120 min): 23 ± 1 nmol/mL
- Plasma Phe level (glucose 12.5 g, 120 min): 46 ± 2 nmol/mL
- Plasma Trp level (glucose 12.5 g, 120 min): 41 ± 1 nmol/mL
- Plasma Tyr level (glucose 12.5 g, 120 min): 50 ± 3 nmol/mL
- Plasma Val level (glucose 12.5 g, 120 min): 221 ± 98 nmol/mL
- Trp/LNAA (glucose 12.5 g, 120 min): .084
- Plasma Iso level (glucose 25 g, 0 min): 71 ± 6 nmol/mL
- Plasma LNAA (sum) (glucose 25 g, 0 min): 639 ± 79 nmol/mL
- Plasma Leu level (glucose 25 g, 0 min): 130 ± 13 nmol/mL
- Plasma Met level (glucose 25 g, 0 min): 26 ± 3 nmol/mL
- Plasma Phe level (glucose 25 g, 0 min): 56 ± 3 nmol/mL
- Plasma Trp level (glucose 25 g, 0 min): 47 ± 2 nmol/mL
- Plasma Tyr level (glucose 25 g, 0 min): 63 ± 3 nmol/mL
- Plasma Val level (glucose 25 g, 0 min): 294 ± 50 nmol/mL
- Trp/LNAA (glucose 25 g, 0 min): .073
- Plasma Iso level (glucose 25 g, 60 min): 48 ± 4 nmol/mL
- Plasma LNAA (sum) (glucose 25 g, 60 min): 466 ± 45 nmol/mL
- Plasma Leu level (glucose 25 g, 60 min): 84 ± 10 nmol/mL
- Plasma Met level (glucose 25 g, 60 min): 21 ± 2 nmol/mL
- Plasma Phe level (glucose 25 g, 60 min): 47 ± 4 nmol/mL
- Plasma Trp level (glucose 25 g, 60 min): 42 ± 2 nmol/mL
- Plasma Tyr level (glucose 25 g, 60 min): 49 ± 2 nmol/mL
- Plasma Val level (glucose 25 g, 60 min): 218 ± 29 nmol/mL
- Trp/LNAA (glucose 25 g, 60 min): .091
- Plasma Iso level (glucose 25 g, 120 min): 46 ± 4 nmol/mL
- Plasma LNAA (sum) (glucose 25 g, 120 min): 454 ± 40 nmol/mL
- Plasma Leu level (glucose 25 g, 120 min): 91 ± 8 nmol/mL
- Plasma Met level (glucose 25 g, 120 min): 19 ± 2 nmol/mL
- Plasma Phe level (glucose 25 g, 120 min): 41 ± 2 nmol/mL
- Plasma Trp level (glucose 25 g, 120 min): 41 ± 3 nmol/mL
- Plasma Tyr level (glucose 25 g, 120 min): 46 ± 2 nmol/mL
- Plasma Val level (glucose 25 g, 120 min): 212 ± 26 nmol/mL
- Trp/LNAA (glucose 25 g, 120 min): .089
- Plasma Iso level (glucose 50 g, 0 min): 61 ± 4 nmol/mL
- Plasma LNAA (sum) (glucose 50 g, 0 min): 573 ± 60 nmol/mL
- Plasma Leu level (glucose 50 g, 0 min): 114 ± 11 nmol/mL
- Plasma Met level (glucose 50 g, 0 min): 26 ± 2 nmol/mL
- Plasma Phe level (glucose 50 g, 0 min): 50 ± 2 nmol/mL
- Plasma Trp level (glucose 50 g, 0 min): 46 ± 2 nmol/mL
- Plasma Tyr level (glucose 50 g, 0 min): 59 ± 4 nmol/mL
- Plasma Val level (glucose 50 g, 0 min): 262 ± 40 nmol/mL
- Trp/LNAA (glucose 50 g, 0 min): .080
- Plasma Iso level (glucose 50 g, 60 min): 48 ± 2 nmol/mL
- Plasma LNAA (sum) (glucose 50 g, 60 min): 469 ± 52 nmol/mL
- Plasma Leu level (glucose 50 g, 60 min): 93 ± 11 nmol/mL
- Plasma Met level (glucose 50 g, 60 min): 21 ± 2 nmol/mL
- Plasma Phe level (glucose 50 g, 60 min): 50 ± 4 nmol/mL
- Plasma Trp level (glucose 50 g, 60 min): 40 ± 1 nmol/mL
- Plasma Tyr level (glucose 50 g, 60 min): 43 ± 3 nmol/mL
- Plasma Val level (glucose 50 g, 60 min): 215 ± 32 nmol/mL
- Trp/LNAA (glucose 50 g, 60 min): .085
- Plasma Iso level (glucose 50 g, 120 min): 36 ± 4 nmol/mL
- Plasma LNAA (sum) (glucose 50 g, 120 min): 372 ± 50 nmol/mL
- Plasma Leu level (glucose 50 g, 120 min): 72 ± 10 nmol/mL
- Plasma Met level (glucose 50 g, 120 min): 18 ± 2 nmol/mL
- Plasma Phe level (glucose 50 g, 120 min): 37 ± 2 nmol/mL
- Plasma Trp level (glucose 50 g, 120 min): 35 ± 2 nmol/mL
- Plasma Tyr level (glucose 50 g, 120 min): 40 ± 4 nmol/mL
- Plasma Val level (glucose 50 g, 120 min): 170 ± 30 nmol/mL
- Trp/LNAA (glucose 50 g, 120 min): .094
- Mean percent reductions of LNAA, dose-dependence (healthy fasting subjects, most clearly observed after 120 min): tended to exhibit dose-dependence; also recorded: dose-related decreases in plasma LNAA concentrations
- Glucose doses needed to increase the plasma TRP/LNAA ratio (healthy young fasting subjects): 25 to 50 g
- Mean absolute LNAA concentrations, dose-related decrease (high intra- and inter-individual variations in basal LNAA): no significant dose-related decreases in mean absolute LNAA concentrations
- Tryptophan/LNAA ratio (smaller reduction in plasma tryptophan): became elevated
- Glucose dose sufficient to decrease LNAA (some subjects): 6 g
- Glucose dose probably required to reduce plasma LNAA (subject 2): ~12.5 g
- Glucose dose that may have been needed to reduce plasma LNAA (subject 4): ~25 g
- Glucose dose that may have been sufficient to reduce plasma LNAA (subjects 1, 3, 5 and 6, one or more of the times tested): ~6 g
